From US20160341734A1, “USE OF FLUOROQUINOLONE ANTIBIOTICS” (POSTECH ACADEMY-INDUSTRY FOUNDATION, priority 2015, published 2016)
Structures can show the parent of a compound that is named as a salt.

Columns and labels:
[1] = two-photon excitation and emission spectrum of the antibiotics (femtosecond laser); assay type: physicochemical
Source text: 3A illustrates an excitation spectrum of hydrochloride moxifloxacin and gatifloxacin. Here, an X axis represents a wavelength (nm) of a femtosecond laser light source used in the experiment, and a degree (a.u.) of two-photon excited fluorescence (TPF) at 700 nm to 800 nm which is a measuring range of a femtosecond laser wavelength is illustrated as a Y axis. Through the graph, it can be seen that hydrochloride moxifloxacin and gatifloxacin may represent fluorescent signals in the light source having a range of 700 nm to 800 nm which is a near-infrared wavelength. Further, in the case where the wavelength of the light source is 700 nm as shown in the intensity of the excited fluorescence graph of the Y axis, it can be seen that a fluorescent signal stronger than other wavelengths is shown. FIG. 3B illustrates an emission spectrum representing a fluorescence expression degree of each antibiotic when the femtosecond laser is applied to hydrochloride moxifloxacin and gatifloxacin. The X axis represents a wavelength (nm) and the Y axis represents the degree (a.u.) of the TPF. In the graph, in the hydrochloride moxifloxacin and the gatifloxacin, it can be seen that the fluorescent signals having wavelengths of 450 nm to 550 nm are frequently expressed and the wavelength of about 520 nm is expressed most strongly.

[2] = test system: corneal cells of the mouse; experiment: multi-photon fluorescence of corneal cells after dropping the antibiotic in the eye; assay type: in vivo
Experimental: Blab/c female mice after five or six weeks, gatifloxacin, hydrochloride moxifloxacin, and a multi-photon microscope including a biaxial scanner (a galvano scanner of x axis and a galvano scanner of y axis) to be used by a point scanning method were prepared.
In this Experimental Example, a two-photon microscope using a femtosecond laser as a light source was used and the multi-photon fluorescence was equally measured under the following condition throughout an experimental process.
Excitation wavelength: 780 nm for vigamox (moxifloxacin)
In order to compare fluorescence expression of hydrochloride moxifloxacin with auto-fluorescence expression of the corneal cells of the mouse, the corneal cells of the mouse which are not applied with hydrochloride moxifloxacin were first photographed.
The Blab/c mouse to be used in the experiment was anesthetized and then fixed to an eye holder for photographing the eye, and photographed by the two-photon microscope. Laser power was set as 30.8 mW, and in this case, the intensity of auto-fluorescence of the photographed mouse cornea was recorded.
In order to measure the fluorescence expression degree of the mouse cornea by vigamox (hydrochloride moxifloxacin), hydrochloride moxifloxacin of 10 μl was dropped in a left eye of the mouse and an eyelid was closed for 30 seconds. […]

[3] = single-photon fluorescence, ultraviolet-ray area; cited from earlier work
[4] = test system: pseudomonas; experiment: multi-photon fluorescence in bacteria; assay type: cell-based
Experimental: (§1) Bacteria (pseudomonas and staphylococcus) used in the experiment, hydrochloride moxifloxacin, and a biaxial scanner (a galvano scanner of x axis and a galvano scanner of y axis) to be used by a point scanning method were prepared.
(§2) In this Experimental Example, a two-photon microscope using a femtosecond laser as a light source was used, and the multi-photon fluorescence was equally measured under the following condition throughout an experimental process.
(§3) Excitation wavelength: 780 nm for vigamox(moxifloxacin)
(§4) The bacteria were incubated under the following condition.
pseudomonas-nutrient broth (nutrient medium)
(§5) 1. A bacteria stock was put in a medium of 3 mL and cultured after overnight incubation (37° C. and 200 rpm).
(§6) 2. Here, 0.03 mL of the cultured bacteria stock was taken and put in a fresh medium of 3 mL, and then cultured (37° C. and 200 rpm) up to OD600=1.5.
3. […]
(§7) In order to compare fluorescence expression of hydrochloride moxifloxacin with auto-fluorescence expression of bacteria, fluorescence expression of bacteria (pseudomonas and staphylococcus) which are not applied with hydrochloride moxifloxacin was first photographed and intensity of the auto-fluorescence expression was recorded. Subsequently, the hydrochloride moxifloxacin was administered to the medium and then the intensity of the fluorescence expression after the incubation time was measured.

[5] = test system: staphylococcus; experiment: multi-photon fluorescence in bacteria; assay type: cell-based
Experimental: as §1, §2, §3, §4
staphylococcus-lysogeny broth (LB medium)
as §5, §6
3. […]
as §7

| emission wavelength expressed most strongly ([1]; two-photon emission spectrum) | light source wavelength with fluorescent signal stronger than other wavelengths ([1]; two-photon excitation spectrum, 700 nm to 800 nm measured) | SMILES | fluorescence intensity in corneal endothelium layer versus auto-fluorescence ([2]; corneal endothelium layer, FIGS. 5E, 6E vs 4E) | intensity of fluorescence expression in cornea versus auto-fluorescence ([2]; laser power 30.8 mW, same as auto-fluorescence) | excited light expressing the fluoroquinolone antibiotics (wavelength) [3] | difference in signal intensity after versus before administering [4] | fluorescence signal intensity after administering ([4]; FIG. 18, before administering 9.5334 a.u.) | difference in signal intensity after versus before administering [5] | fluorescence signal intensity after administering ([5]; FIG. 18, before administering 10.4277 a.u.) |
| --- | --- | --- | --- | --- | --- | --- | --- | --- | --- |
| about 520 nm | 700 nm | COc1c(N2CCNC(C)C2)c(F)cc2c(=O)c(C(=O)O)cn(C3CC3)c12 (stereo not drawn) [gatifloxacin] | higher than the fluorescence intensity of the auto-fluorescence expression | much larger than that of the auto-fluorescence expression | 292 nm |  |  |  |  |
|  |  | COc1c(N2C[C@@H]3CCCN[C@@H]3C2)c(F)cc2c(=O)c(C(=O)O)cn(C3CC3)c12 [hydrochloride moxifloxacin, moxifloxacin] |  |  |  | about 10 times | 101.2196 a.u. | 10 times | 110.3189 a.u. |
